Values of other authors in US20260335397A1, “TREATMENT OF GEOGRAPHIC ATROPHY” (Apellis Pharmaceuticals, Inc., priority 2022, published 2026).
Where a SMILES comes first, the peptide text is derived from it. Bridges are numbered along the chain shown (N, C = ends). [ ]: non-standard residue; d: D form. Abu = CC[C@H](N)C(=O)O

Test system: complement activation
Settings: relative to compstatin (C-terminally amidated); published data; cited from earlier work

Structure (SMILES) | Activity over compstatin [xmore]
CC[C@H](C)[C@H](NC(C)=O)C(=O)N[C@H]1CSSC[C@@H](C(=O)N[C@H](C(N)=O)[C@@H](C)O)NC(=O)[C@H](CCCNC(=N)N)NC(=O)[C@H](Cc2c[nH]cn2)NC(=O)[C@H](C)NC(=O)CNC(=O)[C@H](Cc2c[nH]c3ccccc23)NC(=O)[C@H](CC(=O)O)NC(=O)[C@H](CCC(N)=O)NC(=O)[C@H](Cc2ccc(O)cc2)NC(=O)[C@H](C(C)C)NC1=O [Ac-V4Y/H9A] | 14
CC[C@H](C)[C@H](NC(C)=O)C(=O)N[C@H]1CSSC[C@@H](C(=O)N[C@H](C(N)=O)[C@@H](C)O)NC(=O)[C@H](CCCNC(=N)N)NC(=O)[C@H](Cc2c[nH]cn2)NC(=O)[C@H](C)NC(=O)CNC(=O)[C@H](Cc2c[nH]c3ccc(F)cc23)NC(=O)[C@H](CC(=O)O)NC(=O)[C@H](CCC(N)=O)NC(=O)[C@H](Cc2c[nH]c3ccccc23)NC(=O)[C@H](C(C)C)NC1=O [Ac-V4W/W7(5fW)/H9A] | 121
CC[C@H](C)[C@H](NC(C)=O)C(=O)N[C@H]1CSSC[C@@H](C(=O)N[C@H](C(=O)O)[C@@H](C)O)NC(=O)[C@H](CCCNC(=N)N)NC(=O)[C@H](Cc2c[nH]cn2)NC(=O)[C@H](C)NC(=O)CNC(=O)[C@H](Cc2c[nH]c3ccccc23)NC(=O)[C@H](CC(=O)O)NC(=O)[C@H](CCC(N)=O)NC(=O)[C@H](C2Cc3ccccc3C2)NC(=O)[C@H](C(C)C)NC1=O [Ac-V42Igl/H9A-OH] | 37
CC[C@H](C)[C@H](NC(C)=O)C(=O)N[C@H]1CSSC[C@@H](C(=O)N[C@H](C(=O)O)[C@@H](C)O)NC(=O)[C@H](CCCNC(=N)N)NC(=O)[C@H](Cc2c[nH]cn2)NC(=O)[C@H](C)NC(=O)CNC(=O)[C@H](Cc2c[nH]c3ccccc23)NC(=O)[C@H](CC(=O)O)NC(=O)[C@H](CCC(N)=O)NC(=O)[C@H](Cc2ccc(C(=O)c3ccccc3)cc2)NC(=O)[C@H](C(C)C)NC1=O [Ac-V4(Bpa)/H9A-OH] | 49
CC[C@H](C)[C@H](NC(C)=O)C(=O)N[C@H]1CSSC[C@@H](C(=O)N[C@@H](C(=O)O)[C@H](C)O)NC(=O)[C@H](CCCNC(=N)N)NC(=O)[C@H](Cc2c[nH]cn2)NC(=O)[C@H](C)NC(=O)CNC(=O)[C@H](Cc2c[nH]c3ccccc23)NC(=O)[C@H](CC(=O)O)NC(=O)[C@H](CCC(N)=O)NC(=O)[C@H](Cc2c[nH]c3ccccc23)NC(=O)[C@H](C(C)C)NC1=O [Ac-V4W/H9A/T13dT-OH] | 55
CC[C@H](C)[C@H](NC(C)=O)C(=O)N[C@H]1CSSC[C@@H](C(=O)N[C@H](C(N)=O)[C@@H](C)O)NC(=O)[C@H](CCCNC(=N)N)NC(=O)[C@H](Cc2c[nH]cn2)NC(=O)[C@H](C)NC(=O)CNC(=O)[C@H](Cc2c[nH]c3ccccc23)NC(=O)[C@H](CC(=O)O)NC(=O)[C@H](CCC(N)=O)NC(=O)[C@H](Cc2ccc3ccccc3c2)NC(=O)[C@H](C(C)C)NC1=O [Ac-V4(2-Nal)/H9A] | 99
CC[C@H](C)[C@H](NC(C)=O)C(=O)N[C@H]1CSSC[C@@H](C(=O)N[C@H](C(=O)O)[C@@H](C)O)NC(=O)[C@H](CCCNC(=N)N)NC(=O)[C@H](Cc2c[nH]cn2)NC(=O)[C@H](C)NC(=O)CNC(=O)[C@H](Cc2c[nH]c3ccccc23)NC(=O)[C@H](CC(=O)O)NC(=O)[C@H](CCC(N)=O)NC(=O)[C@H](Cc2csc3ccccc23)NC(=O)[C@H](C(C)C)NC1=O [Ac-V4(Bta)/H9A-OH] | 65
CC[C@H](C)[C@H](NC(C)=O)C(=O)N[C@H]1CSSC[C@@H](C(=O)N[C@H](C(=O)O)[C@@H](C)O)NC(=O)[C@H](CCCNC(=N)N)NC(=O)[C@H](Cc2c[nH]cn2)NC(=O)[C@H](C)NC(=O)CNC(=O)[C@H](Cc2c[nH]c3ccccc23)NC(=O)[C@H](CC(=O)O)NC(=O)[C@H](CCC(N)=O)NC(=O)[C@H](Cc2ccc3ccccc3c2)NC(=O)[C@H](C(C)C)NC1=O [Ac V4(2-Nal)/H9A-OH] | 38
CC[C@H](C)[C@H](NC(C)=O)C(=O)N[C@H]1CSSC[C@@H](C(=O)N[C@H](C(N)=O)[C@@H](C)O)NC(=O)[C@H](CCCNC(=N)N)NC(=O)[C@H](Cc2c[nH]cn2)NC(=O)[C@H](Cc2c[nH]cn2)NC(=O)CNC(=O)[C@H](Cc2c[nH]c3ccccc23)NC(=O)[C@H](CC(=O)O)NC(=O)[C@H](CCC(N)=O)NC(=O)[C@H](C(C)C)NC(=O)[C@H](C(C)C)NC1=O [Ac-compstatin] | 3
CC[C@@H]1NC(=O)CNC(=O)[C@H](Cc2c[nH]c3ccccc23)NC(=O)[C@H](CC(=O)O)NC(=O)[C@H](CCC(N)=O)NC(=O)[C@H](Cc2c[nH]c3ccccc23)NC(=O)[C@H](C(C)C)NC(=O)[C@@H](NC(=O)[C@@H](NC(C)=O)[C@@H](C)CC)CSSC[C@@H](C(=O)N[C@H](C(N)=O)[C@@H](C)O)NC(=O)[C@H](CCCNC(=N)N)NC(=O)[C@H](Cc2c[nH]cn2)NC1=O [Ac-V4W/H9(2-Abu)] (Ac-ICVWQDWG[Abu]HRCT-NH2; disulfide 2-12) | 64
CC[C@H](C)[C@H](NC(C)=O)C(=O)N[C@H]1CSSC[C@@H](C(=O)N[C@H](C(=O)O)[C@@H](C)O)NC(=O)[C@H](CCCNC(=N)N)NC(=O)[C@H](Cc2c[nH]cn2)NC(=O)[C@H](C)NC(=O)CNC(=O)[C@H](Cc2c[nH]c3ccccc23)NC(=O)[C@H](CC(=O)O)NC(=O)[C@H](CCC(N)=O)NC(=O)[C@H](Cc2cccc3ccccc23)NC(=O)[C@H](C(C)C)NC1=O [Ac V4(1-Nal)/H9A-OH] | 30
CC[C@H](C)[C@H](NC(=O)CN)C(=O)N[C@H]1CSSC[C@@H](C(=O)N[C@H](C(=O)N[C@@H](CC(N)=O)C(=O)O)[C@@H](C)O)NC(=O)[C@H](CCCNC(=N)N)NC(=O)[C@H](Cc2c[nH]cn2)NC(=O)[C@H](C)NC(=O)CNC(=O)[C@H](Cc2c[nH]c3cc(F)ccc23)NC(=O)[C@H](CC(=O)O)NC(=O)[C@H](CCC(N)=O)NC(=O)[C@H](Cc2c[nH]c3cc(F)ccc23)NC(=O)[C@H](C(C)C)NC1=O [+G/V4(6fW)/W7(6fW)H9A+N-OH] | 126
CC[C@H](C)[C@H](NC(C)=O)C(=O)N[C@H]1CSSC[C@@H](C(=O)N[C@H](C(N)=O)[C@@H](C)O)NC(=O)[C@H](CCCNC(=N)N)NC(=O)[C@H](Cc2c[nH]cn2)NC(=O)[C@H](C)NC(=O)CNC(=O)[C@H](Cc2c[nH]c3ccccc23)NC(=O)[C@H](CC(=O)O)NC(=O)[C@H](CCC(N)=O)NC(=O)[C@H](C2Cc3ccccc3C2)NC(=O)[C@H](C(C)C)NC1=O [Ac-V42Igl/H9A] | 39
CC[C@H](C)[C@H](NC(C)=O)C(=O)N[C@H]1CSSC[C@@H](C(=O)N[C@H](C(N)=O)[C@@H](C)O)NC(=O)[C@H](CCCNC(=N)N)NC(=O)[C@H](Cc2c[nH]cn2)NC(=O)[C@H](C)NC(=O)CNC(=O)[C@H](Cc2c[nH]c3ccccc23)NC(=O)[C@H](CC(=O)O)NC(=O)[C@H](CCC(N)=O)NC(=O)[C@H](Cc2ccc(C(=O)c3ccccc3)cc2)NC(=O)[C@H](C(C)C)NC1=O [Ac-V4(Bpa)/H9A] | 86
CC[C@H](C)[C@H](NC(C)=O)C(=O)N[C@H]1CSSC[C@@H](C(=O)N[C@H](C(N)=O)[C@@H](C)O)NC(=O)[C@H](CCCNC(=N)N)NC(=O)[C@H](Cc2c[nH]cn2)NC(=O)[C@H](C)NC(=O)CNC(=O)[C@H](Cc2c[nH]c3ccc(F)cc23)NC(=O)[C@H](CC(=O)O)NC(=O)[C@H](CCC(N)=O)NC(=O)[C@H](Cc2cn(C)c3ccccc23)NC(=O)[C@H](C(C)C)NC1=O [Ac-V4(1MeW)/W7(5fW)/H9A] | 264
CC[C@H](C)[C@H](NC(C)=O)C(=O)N[C@H]1CSSC[C@@H](C(=O)N[C@H](C(N)=O)[C@@H](C)O)NC(=O)[C@H](CCCNC(=N)N)NC(=O)[C@H](Cc2c[nH]cn2)NC(=O)[C@H](C)NC(=O)CNC(=O)[C@H](Cc2c[nH]c3ccccc23)NC(=O)[C@H](CC(=O)O)NC(=O)[C@H](CCC(N)=O)NC(=O)[C@H](Cc2c[nH]c3ccc(F)cc23)NC(=O)[C@H](C(C)C)NC1=O [Ac-V4(5fW)/H9A] | 31
CC[C@H](C)[C@H](NC(C)=O)C(=O)N[C@H]1CSSC[C@@H](C(=O)N[C@H](C(N)=O)[C@@H](C)O)NC(=O)[C@H](CCCNC(=N)N)NC(=O)[C@H](Cc2c[nH]cn2)NC(=O)[C@H](C)NC(=O)CNC(=O)[C@H](Cc2c[nH]c3ccccc23)NC(=O)[C@H](CC(=O)O)NC(=O)[C@H](CCC(N)=O)NC(=O)[C@H](Cc2c[nH]c3ccc(C)cc23)NC(=O)[C@H](C(C)C)NC1=O [Ac-V4(5-MeW)/H9A] | 67
CC[C@H](C)[C@H](NC(C)=O)C(=O)N[C@H]1CSSC[C@@H](C(=O)N[C@H](C(N)=O)[C@@H](C)O)NC(=O)[C@H](CCCNC(=N)N)NC(=O)[C@H](Cc2c[nH]cn2)NC(=O)[C@H](C)NC(=O)CNC(=O)[C@H](Cc2c[nH]c3ccccc23)NC(=O)[C@H](CC(=O)O)NC(=O)[C@H](CCC(N)=O)NC(=O)[C@H](Cc2csc3ccccc23)NC(=O)[C@H](C(C)C)NC1=O [Ac-V4(Bta)/H9A] | 64
CC[C@H](C)[C@H](NC(C)=O)C(=O)N[C@H]1CSSC[C@@H](C(=O)N[C@H](C(N)=O)[C@@H](C)O)NC(=O)[C@H](CCCNC(=N)N)NC(=O)[C@H](Cc2c[nH]cn2)NC(=O)[C@H](C)NC(=O)CNC(=O)[C@H](Cc2c[nH]c3ccccc23)NC(=O)[C@H](CC(=O)O)NC(=O)[C@H](CCC(N)=O)NC(=O)[C@H](Cc2c[nH]c3ccccc23)NC(=O)[C@H](C(C)C)NC1=O [Ac-V4W/H9A] | 45
